This is an account of results in article PMC3962778 (Journal of medicinal chemistry, 2014).

Values joined by “and” are separate entries in the source; they are usually repeats but may differ in a detail not shown here. Equal entries are not always repeated. Where two headings read alike, the source gives them in different places.

Assay [1] deals with T. brucei brucei (strain BF427). In words: In vitro parasite growth arrest assay. Type of assay: cell-based, Trypanosoma brucei brucei. The settings on record: for EC50: Trypanosoma brucei.
The test system of assay [2] is T. brucei rhodesiense STIB 900 strain. Description: Anti-parasite efficacy studies in mice. The settings on record: for Cured / Day of euthanasia: mice, oral, 5 days.
The mark [3] stands for this setting: 5 mg/kg, 2 doses per day, Exp 1 and Exp 2.
Setting [4] is: 20 mg/kg, 1 dose per day, Exp 2.
[5] abbreviates: 20 mg/kg, 2 doses per day, Exp 1.
The mark [6] stands for this setting: 50 mg/kg, 1 dose per day, Exp 1.

Consider `O=C(Nc1ccc(F)c(-c2nc3cc(-c4ccccc4)cnc3[nH]2)c1)N1CCCC1` [Compound 64], for which, in assay [1], the “extent of growth inhibition of T. brucei in vitro” value is reported as “complete growth inhibition”. Besides, in assay [2] (T. brucei infected mice), the “lowest oral dose at which infected mice were cured (dosed orally down to)” value was 2.5 mg/kg. Besides, the Cured in assay [2] (1 mg/kg, 2 doses per day, Exp 2) was 0 of 5 and 0/5; in assay [2] (2.5 mg/kg, 2 doses per day, Exp 2) it was 2 of 5 and 2/5; in assay [2] (5 mg/kg, 1 dose per day, Exp 2) it was 2 of 5 and 2/5; in assay [2] (setting [3]) it was “all mice were cured and 5/5”; in assay [2] (setting [4]), “Cures in all mice and 5/5”; in assay [2] (setting [5]), “Cures in all mice and 5/5”. The Cured entry in assay [2] (setting [6]) was “Cures in all mice and 5/5”; in assay [2] (50 mg/kg, 2 doses per day, Exp 1) it was “Cures in all mice and 5/5”. Further, the Day of euthanasia in assay [2] (setting [3]) is 60; in assay [2] (setting [4]), 60; in assay [2] (setting [5]), 60; in assay [2] (setting [6]) it was 60; in assay [2] (50 mg/kg, 2 doses per day, Exp 1, day 60 = cured), 60.
Consider `Nc1ccc(Cl)c(-c2nc3ncccc3o2)c1` [Compound 36], for which, in assay [1] (tested up to 20 μM), the “inhibition of T. brucei growth in vitro” value is “no inhibition”.
On to `N=C(N)c1ccc(OCCCCCOc2ccc(C(=N)N)cc2)cc1` [Pentamidine, reference compound], for which the EC50 in assay [1] (read-out: EC50, concentration of compound required to inhibit growth by 50%) is 1.7 nM; in assay [1] (read-out: EC50 against T. brucei in vitro), 1.2 nM.
